Source: PMC7824363, “The Cytotoxicity of RNase-Derived Peptides” (Biomolecules, 2020)

Assays:
BT-20 cells [1] = test: MTT assay, BT-20 cell viability; assay type: cell-based, human; conditions: 48 h
Method: (§1) The human alveolar adenocarcinoma cell line (A549), two breast cancer cell lines (MCF-7 and BT-20), and cervical cancer cell line (HeLa) were obtained from American Type Culture […] (Rockville, MD, USA). Cells were grown at 37 °C in humidified 5% CO2 atmosphere using RPMI 1640 medium for A549 cells and Dulbecco’s modified Eagle’s medium for MCF-7, BT-20, and HeLa cells supplemented with 10% fetal bovine serum (HyClone), 2 mM glutamine, and antibiotics (penicillin and streptomycin, 100 U/mL each).
(§2) The viability of untreated control cells and cells treated with binase and binase-derived peptides at different concentrations (5, 50, and 125 μM) was determined according to the mitochondrial nicotinamide adenine dinucleotide phosphate NAD(P)H-dependent cellular oxidoreductases activity tested by the standard procedure based on the reduction of the tetrazolium dye MTT) to its insoluble product formazan, which has a purple color. Cells at the initial concentration of […] per well were grown in a 96-well plate (CELLTREAT Scientific Products, Shirley, MA, USA); then, the culture fluid was discarded and fresh medium with peptides was added. After 48 h, formazan absorption was measured at 570 nm (xMark, Bio-Rad, Hercules, CA, USA). The amount of formazan produced is proportional to the number of viable cells. The viability of untreated cells was taken as 100%.

HeLa cells = test: MTT assay, HeLa cell viability; assay type: cell-based, human; conditions: 48 h, versus untreated cells = 100%, triplicate
Method: as §1, §2

BT-20 cells [2] = test: Immunofluorescence confocal microscopy, entry into BT-20 cells; assay type: cell-based, human; conditions: 50 µM, 30 min incubation, His-tagged peptides (anti-His Alexa Fluor 647) or tagless binase (anti-binase, FITC), confocal laser scanning microscopy
Method: (§3) A549 cells (25,000 cells/well) and BT-20 cells (150,000 cells/well) were seeded on 4-well chamber slides and incubated for 24 h in 800 µL of 10% fetal bovine serum containing RPMI or DMEM, respectively. The medium was replaced with the fresh one, and the His-tagged B21–50 and B74–94 peptides or tagless binase were applied to each well at the final concentration of 50 µM. After 30 min of incubation, the medium was removed, and the cells were washed three times with ice-cold phosphate-buffered saline (PBS). Then, cells were fixed in a 4% paraformaldehyde solution for 15 min and permeabilized in 0.1% Triton-X100 solution in PBS for 10 min. Binase-treated cells were incubated overnight with anti-binase antibodies (1:500) at 4 °C [39]. Thereafter, the cells were washed three times in PBS containing 0.1% Tween for 10 min each and then were incubated with fluorescein isothiocyanate (FITC)-conjugated mouse anti-rabbit immunoglobulin G (IgG) (H+L) cross-adsorbed secondary antibody (Thermo Fisher Scientific, Inc., Waltham, MA, USA Cat.# 31584) at the concentration of 2 µg/mL in PBS containing 1% bovine serum albumin at room temperature for 45 min in the dark. Non-specific binding of the secondary antibodies was evaluated at the same experiment but without treatment with primary antibodies. […]

A549 cells = test: Immunofluorescence confocal microscopy, entry into A549 cells; assay type: cell-based, human; conditions: 50 µM, 30 min incubation, His-tagged peptides (anti-His Alexa Fluor 647) or tagless binase (anti-binase, FITC), confocal laser scanning microscopy
Method: as §3

MCF-7 cells = test: MTT assay, MCF-7 cell viability; assay type: cell-based, human; conditions: 125 µM, 48 h
Method: as §1, §2

BT-20 cells [3] = test: MTT assay with cetuximab pre-treatment (EGFR inhibition); assay type: cell-based, human; conditions: 10 μg/mL cetuximab for 48 h, then 50 μM peptide for 48 h
Method: To examine the peptide effect on EGFR signaling, the EGFR-specific monoclonal antibody cetuximab (Merck, KGaA, Darmstadt, Germany) was added at the concentration of 10 μg/mL to cells grown for 24 h in 96-well plates. After 48 h of exposure to inhibitor, half the wells were treated with the B74–94 peptide at 50 μM concentration, and the cells were allowed to grow for another 48 h. Afterwards, cell proliferation was assessed by the MTT assay.

[4] = target: epidermal growth factor receptor (human (endogenous in BT-20)) (UniProt P00533)
[5] = concentration not specified (5-125 µM tested)

“B1–20: chemically synthesized peptide corresponding to binase region 1–20 (AVINTFDGVADYLIRYKRLP; UniProt P00649 54-73, looked up, fragment)” was tested. Which “decrease of cell viability” value (BT-20 cells [1]; [5]) did it give?
The value was 15–25%.

Which “decrease of cell viability” value (HeLa cells; 50 µM) does the source give for “B21–50: chemically synthesized peptide corresponding to binase region 21–50 (DNYITKSQASALGWVASKGNLAEVAPGKSI; UniProt P00649 74-103, looked up, fragment)” here?
The value was 45%.

What about the “decrease of cell viability” value (HeLa cells; 125 µM (highest concentration)) of the same substance?
The value was 93%.

And the “decrease of cell viability” value (BT-20 cells [1]; 5 µM, versus non-treated cells, triplicate)?
Its value is 28%.

And the “decrease of cell viability” value (BT-20 cells [1]; 50 µM, versus non-treated cells, triplicate)?
The value was 23%.

What about the “decrease of cell viability” value (BT-20 cells [1]; 125 µM, versus non-treated cells, triplicate) of the same substance?
The value was 68%.

And the “detection inside BT-20 cells” value (BT-20 cells [2])?
The value was “detected inside BT-20 cells”.

And the “detection inside A549 cells” value (A549 cells)?
Its value is “not been visualized”.

Which results are given for “B74–94: chemically synthesized peptide corresponding to binase region 74–94 (DINYVSGFRNADRLVYSSDWL; UniProt P00649 127-147, looked up, fragment)”?
inhibition of cell proliferation (fold) (MCF-7 cells): two-fold; decrease of cytotoxicity after preliminary cell treatment with cetuximab (BT-20 cells [3]): 28%; detection inside BT-20 cells (BT-20 cells [2]): detected inside BT-20 cells; detection inside A549 cells (A549 cells): not been visualized

“B95–109: chemically synthesized peptide corresponding to binase region 95–109 (IYKTTDHYATFTRIR; UniProt P00649 148-162, looked up, fragment)” was tested. Which “decrease of cell viability” value (BT-20 cells [1]; [5]) did it give?
The value was 15–25%.

How did the cytotoxicity of B74–94 (50 μM, 48 h) toward BT-20 cells by MTT assay after 48 h of pre-treatment with 10 μg/mL cetuximab (EGFR-specific antibody) [4] turn out when binase-derived peptide B74–94 was run?
The cytotoxicity of B74–94 (50 μM, 48 h) toward BT-20 cells by MTT assay after 48 h of pre-treatment with 10 μg/mL cetuximab (EGFR-specific antibody) was 28%.
